# Assay results: the supplement of paper PMC10307832
# Experiments:
# Experiment in all cases: relative viability (nuclei count vs DMSO), 5 days (fraction); higher = more cells survive
# R406 + Lapatinib = compound: COc1cc(Nc2ncc(F)c(Nc3ccc4c(n3)NC(=O)C(C)(C)O4)n2)cc(OC)c1OC [R406] + CS(=O)(=O)CCNCc1ccc(-c2ccc3ncnc(Nc4ccc(OCc5cccc(F)c5)c(Cl)c4)c3c2)o1 [Lapatinib] (partner 2 µM)
# In short: (§1)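 One day after seeding in 1536-well plates, lung cancer cell lines were dosed by pin tool. Dosing was either single-drug or a fixed anchor-drug dose plus five library-drug doses (not always all listed) in √10 steps. After 5 days, nuclei were stained in one fix-and-stain step and counted on 4× images, and relative viability is the nuclei count of treated wells over that of vehicle wells, given as the median of duplicate plates.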
# R406 + Olaparib = compound: COc1cc(Nc2ncc(F)c(Nc3ccc4c(n3)NC(=O)C(C)(C)O4)n2)cc(OC)c1OC [R406] + O=C(c1cc(Cc2n[nH]c(=O)c3ccccc23)ccc1F)N1CCN(C(=O)C2CC2)CC1 [Olaparib] (partner 8 µM)
# In short: as §1
# Daporinad + Tozasertib = compound: O=C(/C=C/c1cccnc1)NCCCCC1CCN(C(=O)c2ccccc2)CC1 [Daporinad] + Cc1cc(Nc2cc(N3CCN(C)CC3)nc(Sc3ccc(NC(=O)C4CC4)cc3)n2)n[nH]1 [Tozasertib] (partner 0.1 µM)
# In short: as §1
# Daporinad + Decitabine = compound: O=C(/C=C/c1cccnc1)NCCCCC1CCN(C(=O)c2ccccc2)CC1 [Daporinad] + Nc1ncn([C@H]2C[C@H](O)[C@@H](CO)O2)c(=O)n1 [Decitabine] (partner 2 µM)
# In short: as §1
Cell Line,relative viability (R406 + Lapatinib; first compound 0.08 µM),relative viability (R406 + Lapatinib; first compound 0.253 µM),relative viability (R406 + Lapatinib; first compound 0.8 µM),relative viability (R406 + Lapatinib; first compound 2.53 µM),relative viability (R406 + Lapatinib; first compound 8 µM),relative viability (R406 + Olaparib; first compound 0.08 µM),relative viability (R406 + Olaparib; first compound 0.253 µM),relative viability (R406 + Olaparib; first compound 0.8 µM),relative viability (R406 + Olaparib; first compound 2.53 µM),relative viability (R406 + Olaparib; first compound 8 µM),relative viability (Daporinad + Tozasertib; first compound 0.0005 µM),relative viability (Daporinad + Tozasertib; first compound 0.001581 µM),relative viability (Daporinad + Tozasertib; first compound 0.005 µM),relative viability (Daporinad + Tozasertib; first compound 0.01581 µM),relative viability (Daporinad + Decitabine; first compound 0.0005 µM),relative viability (Daporinad + Decitabine; first compound 0.001581 µM),relative viability (Daporinad + Decitabine; first compound 0.005 µM),relative viability (Daporinad + Decitabine; first compound 0.01581 µM)
NCI-H322M,0.543,0.51,0.647,0.335,0.343,0.654,0.695,0.826,0.641,0.488,0.572,0.485,0.396,0.312,0.659,0.749,0.683,0.664
NCI-H358,0.407,0.441,0.47,0.375,0.2,0.562,0.617,0.632,0.279,0.209,0.0969,0.0872,0.11,0.0799,0.215,0.256,0.233,0.194
NCI-H460,1.07,1.51,,,0.308,0.363,0.577,0.441,0.434,0.341,0.43,0.386,0.6,0.56,0.493,0.466,0.481,0.453
NCI-H520,0.733,1.03,1.02,0.241,0.133,0.314,0.34,0.329,0.194,0.126,0.446,0.507,0.25,0.184,0.558,0.513,0.283,0.18
NCI-H596,1.04,1.2,0.972,0.867,0.421,0.626,0.734,0.606,0.641,0.377,0.879,0.929,1.1,0.65,0.982,1,0.912,0.636
NCI-H647,0.84,1.17,1.78,0.0824,0.157,0.423,0.633,0.643,0.231,0.0598,0.308,0.305,0.285,0.508,0.37,0.425,0.448,0.366
NCI-H650,0.877,1.04,1.02,0.243,0.52,0.342,0.42,0.435,0.313,0.301,0.691,0.853,0.738,0.835,0.307,0.387,0.351,0.323
NCI-H661,0.435,0.48,0.413,0.362,0.277,0.731,0.783,0.673,0.697,0.591,0.368,0.339,0.345,0.292,0.615,0.625,0.416,0.362
NCI-H727,0.918,0.85,0.905,0.195,0.712,0.533,0.67,0.666,0.75,0.663,0.737,0.608,0.555,0.62,0.822,0.903,1,0.67
